Active and inactive are the calls of the source. The rule behind the calls is not given here. Side chains are listed from the residue outwards. Peptide text beside a SMILES is read from it. * marks the point of attachment. Biotin = O=C1N[C@H]2[C@H](CS[C@H]2CCCCC(=O)*)N1; PEG4 = NCCOCCOCCOCCOCCC(=O)O
Tests used:
[1] = molecular target: T1, Heat shock protein HSP 90-beta (Homo sapiens, UniProt P08238); assay: Binding affinity to human Hsp90 closed state by fluorescence polarization anisotropy
[2] = Binding affinity to Saccharomyces cerevisiae Hsc82 closed state by fluorescence polarization anisotropy method in presence of non-hydrolyzable ATP analog AMPPNP
[3] = Binding affinity to Saccharomyces cerevisiae Hsc82 open apo state by fluorescence polarization anisotropy method
[4] = molecular target: T1, Heat shock protein HSP 90-beta; assay: Binding affinity to Hsp90 after 1 hrs by Western blotting
Jurkat = assay: Cytotoxicity against human Jurkat T-lymphoblastoid leukemia cells after 24 to 48 hrs by MTS assay; format: cell-based
[5] = molecular target: T1, Heat shock protein HSP 90-beta; assay: Binding affinity to human Hsp90 open state by fluorescence polarization anisotropy

T1 sequence (P08238 whole entry): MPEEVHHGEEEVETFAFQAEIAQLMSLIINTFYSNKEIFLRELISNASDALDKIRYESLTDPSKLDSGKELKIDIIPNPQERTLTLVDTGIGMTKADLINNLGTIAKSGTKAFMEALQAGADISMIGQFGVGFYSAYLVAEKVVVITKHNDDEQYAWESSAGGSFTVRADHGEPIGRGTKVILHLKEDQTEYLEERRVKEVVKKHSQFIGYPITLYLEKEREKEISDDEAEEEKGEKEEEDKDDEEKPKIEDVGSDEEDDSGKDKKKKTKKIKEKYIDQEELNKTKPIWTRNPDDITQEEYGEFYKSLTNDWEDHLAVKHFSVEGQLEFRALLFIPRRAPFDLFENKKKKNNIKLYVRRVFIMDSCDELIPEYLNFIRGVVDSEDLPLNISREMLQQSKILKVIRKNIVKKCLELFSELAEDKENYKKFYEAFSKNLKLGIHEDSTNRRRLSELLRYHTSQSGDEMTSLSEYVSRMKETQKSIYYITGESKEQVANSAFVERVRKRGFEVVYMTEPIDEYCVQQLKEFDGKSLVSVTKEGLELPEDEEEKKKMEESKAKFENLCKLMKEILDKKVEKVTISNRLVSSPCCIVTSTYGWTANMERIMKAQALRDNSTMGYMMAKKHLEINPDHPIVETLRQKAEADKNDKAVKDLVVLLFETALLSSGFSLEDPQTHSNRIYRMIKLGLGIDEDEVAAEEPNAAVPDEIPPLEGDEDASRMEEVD

Compound	Kd [2] [µM]	Kd [3] [µM]	further results
CC(C)C[C@@H]1NC(=O)[C@H](Cc2ccccc2)NC(=O)[C@H](CC(C)C)NC(=O)[C@H](C(C)C)NC(=O)[C@H](CC(C)C)NC1=O (cyclo(FLLVL))	–	–	Kd [1]: 100 µM
CC(C)[C@@H]1NC(=O)[C@H](CCCCNC(=O)c2ccc(C(=O)O)c(-c3c4ccc(=O)cc-4oc4cc(O)ccc34)c2)NC(=O)[C@H](CCCCNC(=O)OCc2ccccc2)NC(=O)[C@H](Cc2ccccc2)NC(=O)[C@@H](Cc2ccccc2)N(C)C1=O	55	103	–
CC(C)C[C@@H]1NC(=O)[C@H](Cc2ccccc2)NC(=O)[C@H](CC(C)C)NC(=O)[C@H](C(C)C)NC(=O)[C@H](CCCCNC(=O)CCOCCOCCOCCOCCNC(=O)CCCC[C@@H]2SC[C@@H]3NC(=O)N[C@@H]32)NC1=O (cyclo(FLK([PEG4-Biotin])VL))	–	–	Kd [4]: 20 µM
CC(C)C[C@@H]1NC(=O)[C@H](CCCCNC(=O)OCc2ccccc2)NC(=O)[C@H](Cc2ccccc2)NC(=O)[C@@H](Cc2ccccc2)N(C)C(=O)[C@H](CCCCNC(=O)c2ccc(C(=O)O)c(-c3c4ccc(=O)cc-4oc4cc(O)ccc34)c2)NC1=O	27	57	–
CO[C@@H]1[C@@H](OC(N)=O)[C@@H](O)[C@H](Oc2ccc3c(O)c(NC(=O)c4ccc(O)c(CC=C(C)C)c4)c(=O)oc3c2C)OC1(C)C [NOVOBIOCIN]	–	–	Activity (Jurkat): 700 µM
CC(C)C[C@@H]1NC(=O)[C@H](CCCCNC(=O)OCc2ccccc2)NC(=O)[C@H](CCCCNC(=O)c2ccc(C(=O)O)c(-c3c4ccc(=O)cc-4oc4cc(O)ccc34)c2)NC(=O)[C@@H](Cc2ccccc2)N(C)C(=O)[C@H](C(C)C)NC1=O	120	180	–
CC(C)C[C@@H]1NC(=O)[C@H](CCCCNC(=O)OCc2ccccc2)NC(=O)[C@H](Cc2ccccc2)NC(=O)[C@@H](Cc2ccccc2)N(C)C(=O)[C@H](C(C)C)NC1=O	–	–	Activity [5]: Active; Activity [1]: Active
